Reference: patent US20030171218A1, “Substituted 3-heteroaryl(amino- or oxy)pyrrolidin-2-ones, their preparation and use as herbicides or plant growth regulators” (priority 2001, published 2003)

Columns and labels:
[1] = tested on: weed plants such as Digitaria sanguinalis, Echinochloa crus-galli, Setaria faberi, Setaria viridis, Sorghum halepense, Abutilon theophrasti, Amaranthum …; assay: Pre-emergence effect on weeds (greenhouse pot test); type: in vivo, monocotyledonous and dicotyledonous weed plants; conditions: application rate of 1 kg or less of active substance per hectare; scored visually after 3 to 4 weeks by comparison with untreated controls
Source text: Seeds or rhizome pieces of monocotyledonous and dicotyledonous weed plants are placed in sandy loam soil in plastic pots and covered with soil. The compounds according to the invention which are formulated in the form of wettable powders or emulsion concentrates are then applied to the surface of the soil cover in the form of aqueous suspensions or emulsions at an application rate of 600 to 800 l of water/ha (converted), in various dosages.
After the treatment, the pots are placed in a greenhouse and kept under good growth conditions for the weeds. After the test plants have emerged, the damage to the plants or the negative effect on the emergence is scored visually after a test period of 3 to 4 weeks by comparison with untreated controls. As shown by the test results, compounds according to the invention have good herbicidal pre-emergence activity against a broad spectrum of weed grasses and broad-leafed weeds.

[2] = tested on: harmful plants such as Digitaria sanguinalis, Echinochloa crus-galli, Setaria faberi, Setaria viridis, Sorghum halepense, Abutilon theophrasti, Amaranthum …; assay: Post-emergence effect on weeds (greenhouse pot test); type: in vivo, monocotyledonous and dicotyledonous weeds; conditions: application rate of 1 kg and less of active substance per hectare; treated at three-leaf stage; scored visually after about 3 to 4 weeks by comparison with untreated controls
Description: Seeds or rhizome pieces of monocotyledonous and dicotyledonous weeds are placed in sandy loam soil in plastic pots, covered with soil and grown in a greenhouse under good growth conditions. Three weeks after sowing, the test plants are treated at the three-leaf stage. The compounds according to the invention which were formulated as wettable powders or emulsion concentrates are sprayed, at various dosages, onto the green parts of the plants at an application rate of 600 to 800 l of water/ha (converted). After the test plants have remained in the greenhouse for about 3 to 4 weeks under optimum growth conditions, the effect of the preparations is scored visually by comparison with untreated controls. The agents according to the invention also have good herbicidal activity post-emergence against a broad spectrum of economically important weed grasses and broad-leafed weeds.

| SMILES | herbicidal activity pre-emergence [1] | herbicidal activity post-emergence [2] |
| --- | --- | --- |
| CC(C)c1nc(N)nc(OC2CCN(c3ccccc3)C2=O)n1 (stereo not drawn) [Example A45] | very good herbicidal activity | very good herbicidal activity |
| CC(C)c1nc(N)nc(OC2CCN(c3cccc(C(F)(F)F)c3)C2=O)n1 (stereo not drawn) [Example A46] | very good herbicidal activity | very good herbicidal activity |
| Cc1cccc(N2CCC(Oc3nc(N)nc(C(C)C)n3)C2=O)c1 (stereo not drawn) [Example A47] | very good herbicidal activity | very good herbicidal activity |
| Cc1cc(C)cc(N2CCC(Oc3nc(N)nc(C(C)C)n3)C2=O)c1 (stereo not drawn) [Example A48] | very good herbicidal activity | very good herbicidal activity |
| Cc1cc(N2CCC(Oc3nc(N)nc(C(C)C)n3)C2=O)ccc1F (stereo not drawn) [Example A49] | very good herbicidal activity | very good herbicidal activity |
| COc1cccc(N2CCC(Oc3nc(N)nc(C(C)C)n3)C2=O)c1 (stereo not drawn) [Example A50] | very good herbicidal activity | very good herbicidal activity |
| CC(C)c1nc(N)nc(OC2CCN(c3cccc(OC(F)(F)F)c3)C2=O)n1 (stereo not drawn) [Example A51] | very good herbicidal activity | very good herbicidal activity |
| CC(C)c1nc(N)nc(OC2CCN(c3cccc(Cl)c3)C2=O)n1 (stereo not drawn) [Example A52] | very good herbicidal activity | very good herbicidal activity |
| CC(C)c1nc(N)nc(OC2CCN(c3cccc(F)c3)C2=O)n1 (stereo not drawn) [Example A53] | very good herbicidal activity | very good herbicidal activity |
| CC(C)(F)c1nc(N)nc(OC2CCN(c3cccc(C(F)(F)F)c3)C2=O)n1 (stereo not drawn) [Example A54] | very good herbicidal activity | very good herbicidal activity |
| Cc1cccc(N2CCC(Oc3nc(N)nc(C(C)(C)F)n3)C2=O)c1 (stereo not drawn) [Example A56] | very good herbicidal activity | very good herbicidal activity |
| Cc1cc(C)cc(N2CCC(Oc3nc(N)nc(C(C)(C)F)n3)C2=O)c1 (stereo not drawn) [Example A57] | very good herbicidal activity | very good herbicidal activity |
| Cc1cc(N2CCC(Oc3nc(N)nc(C(C)(C)F)n3)C2=O)ccc1F (stereo not drawn) [Example A58] | very good herbicidal activity | very good herbicidal activity |
| COc1cccc(N2CCC(Oc3nc(N)nc(C(C)(C)F)n3)C2=O)c1 (stereo not drawn) [Example A59] | very good herbicidal activity | very good herbicidal activity |
| CC(C)(F)c1nc(N)nc(OC2CCN(c3cccc(OC(F)(F)F)c3)C2=O)n1 (stereo not drawn) [Example A60] | very good herbicidal activity | very good herbicidal activity |
| CC(C)(F)c1nc(N)nc(OC2CCN(c3cccc(Cl)c3)C2=O)n1 (stereo not drawn) [Example A61] | very good herbicidal activity | very good herbicidal activity |
| CC(C)(F)c1nc(N)nc(OC2CCN(c3cccc(F)c3)C2=O)n1 (stereo not drawn) [Example A62] | very good herbicidal activity | very good herbicidal activity |
| CC(F)c1nc(N)nc(N(C)C2CCN(c3cccc(OC(F)(F)F)c3)C2=O)n1 (stereo not drawn) [Example A63] | very good herbicidal activity | very good herbicidal activity |
| CC(F)c1nc(N)nc(N(C)C2CCN(c3cccc(C(F)(F)F)c3)C2=O)n1 (stereo not drawn) [Example A64] | very good herbicidal activity | very good herbicidal activity |
| Cc1cc(C)cc(N2CCC(N(C)c3nc(N)nc(C(C)F)n3)C2=O)c1 (stereo not drawn) [Example A65] | very good herbicidal activity | very good herbicidal activity |
| CC(F)c1nc(N)nc(N(C)C2CCN(c3cccc(Cl)c3)C2=O)n1 (stereo not drawn) [Example A66] | very good herbicidal activity | very good herbicidal activity |

| SMILES | herbicidal activity pre-emergence [1] | herbicidal activity post-emergence [2] |
| --- | --- | --- |
| Cc1cc(N2CCC(N(C)c3nc(N)nc(C(C)F)n3)C2=O)ccc1F (stereo not drawn) [Example A67] | very good herbicidal activity | very good herbicidal activity |
| CC(F)c1nc(N)nc(N(C)C2CCN(c3cccc(F)c3)C2=O)n1 (stereo not drawn) [Example A69] | very good herbicidal activity | very good herbicidal activity |
| CC(C)c1nc(N)nc(N(C)C2CCN(c3cccc(C(F)(F)F)c3)C2=O)n1 (stereo not drawn) [Example A70] | very good herbicidal activity | very good herbicidal activity |
| Cc1cc(C)cc(N2CCC(N(C)c3nc(N)nc(C(C)C)n3)C2=O)c1 (stereo not drawn) [Example A71] | very good herbicidal activity | very good herbicidal activity |
| CC(C)c1nc(N)nc(N(C)C2CCN(c3cccc(Cl)c3)C2=O)n1 (stereo not drawn) [Example A72] | very good herbicidal activity | very good herbicidal activity |
| Cc1cc(N2CCC(N(C)c3nc(N)nc(C(C)C)n3)C2=O)ccc1F (stereo not drawn) [Example A73] | very good herbicidal activity | very good herbicidal activity |
| Cc1cccc(N2CCC(N(C)c3nc(N)nc(C(C)C)n3)C2=O)c1 (stereo not drawn) [Example A74] | very good herbicidal activity | very good herbicidal activity |
| CC(C)c1nc(N)nc(N(C)C2CCN(c3cccc(OC(F)(F)F)c3)C2=O)n1 (stereo not drawn) [Example A75] | very good herbicidal activity | very good herbicidal activity |
| CC(C)c1nc(N)nc(N(C)C2CCN(c3cccc(F)c3)C2=O)n1 (stereo not drawn) [Example A76] | very good herbicidal activity | very good herbicidal activity |
| COc1cccc(N2CCC(N(C)c3nc(N)nc(C(C)(C)F)n3)C2=O)c1 (stereo not drawn) [Example A77] | very good herbicidal activity | very good herbicidal activity |
| Cc1cc(C)cc(N2CCC(N(C)c3nc(N)nc(C(C)(C)F)n3)C2=O)c1 (stereo not drawn) [Example A78] | very good herbicidal activity | very good herbicidal activity |
| CN(c1nc(N)nc(C(C)(C)F)n1)C1CCN(c2cccc(Cl)c2)C1=O (stereo not drawn) [Example A79] | very good herbicidal activity | very good herbicidal activity |
| CN(c1nc(N)nc(C(C)(C)F)n1)C1CCN(c2cccc(OC(F)(F)F)c2)C1=O (stereo not drawn) [Example A80] | very good herbicidal activity | very good herbicidal activity |
| CN(c1nc(N)nc(C(C)(C)F)n1)C1CCN(c2cccc(C(F)(F)F)c2)C1=O (stereo not drawn) [Example A81] | very good herbicidal activity | very good herbicidal activity |
| CN(c1nc(N)nc(C(C)(C)F)n1)C1CCN(c2cccc(F)c2)C1=O (stereo not drawn) [Example A82] | very good herbicidal activity | very good herbicidal activity |
| Cc1cc(N2CCC(N(C)c3nc(N)nc(C(C)(C)F)n3)C2=O)ccc1F (stereo not drawn) [Example A83] | very good herbicidal activity | very good herbicidal activity |
| Cc1cccc(N2CCC(N(C)c3nc(N)nc(C(C)(C)F)n3)C2=O)c1 (stereo not drawn) [Example A84] | very good herbicidal activity | very good herbicidal activity |
| Cc1cccc(N2CCC(Nc3nc(N)nc(C(C)(C)F)n3)C2)c1 (stereo not drawn) [Example E7] | very good herbicidal activity | very good herbicidal activity |
| Cc1cccc(N2CCC(Nc3nc(N)nc(C(C)F)n3)C2)c1 (stereo not drawn) [Example E8] | very good herbicidal activity | very good herbicidal activity |
| Cc1cccc(N2CCC(Nc3nc(N)nc(C(C)C)n3)C2)c1 (stereo not drawn) [Example E9] | very good herbicidal activity | very good herbicidal activity |
| Cc1cc(N2CCC(Nc3nc(N)nc(C(C)(C)F)n3)C2)ccc1F (stereo not drawn) [Example E10] | very good herbicidal activity | very good herbicidal activity |
